{"source": "paper PMC10294771", "about": "(Journal of Enzyme Inhibition and Medicinal Chemistry, 2023)", "test_system": "HCT-116 cells", "experiment": "In vitro cytotoxicity assay", "assay_type": "cell-based", "settings": "Homo sapiens, HCT-116, 72 h, read-out: IC50, HCT-116 cell proliferation"}
{"smiles": "C[C@H](O)C(=O)N1CCC(CCn2c(Sc3cc4c(cc3Br)OCO4)nc3c(N)ncnc32)CC1", "note": "[MPC-3100, (2S)-1-[4-(2-{6-amino-8-[(6-bromo-1,3-benzodioxol-5-yl)sulfanyl]-9H-purin-9-yl}ethyl)piperidin-1-yl]-2-hydroxypropan-1-one]", "values": [{"measurement": "IC50", "result": 0.78, "unit": "µM"}]}
